Data taken from ChEMBL document CHEMBL5149967, “Chemical Highlights Supporting the Role of Lipid A in Efficient Biological Adaptation of Gram-Negative Bacteria to External Stresses” (J Med Chem, 2021).
In brackets after ≈: the same amount, converted by molar mass. Residues, ends and D or L forms follow the SMILES beside them.

How the values were obtained:
[1] = target: T1, 3-oxoacyl-[acyl-carrier-protein] synthase 2 (Staphylococcus aureus, UniProt Q5TKS0); assay: Inhibition of Staphylococcus aureus FabF
T1 sequence (Q5TKS0 whole entry): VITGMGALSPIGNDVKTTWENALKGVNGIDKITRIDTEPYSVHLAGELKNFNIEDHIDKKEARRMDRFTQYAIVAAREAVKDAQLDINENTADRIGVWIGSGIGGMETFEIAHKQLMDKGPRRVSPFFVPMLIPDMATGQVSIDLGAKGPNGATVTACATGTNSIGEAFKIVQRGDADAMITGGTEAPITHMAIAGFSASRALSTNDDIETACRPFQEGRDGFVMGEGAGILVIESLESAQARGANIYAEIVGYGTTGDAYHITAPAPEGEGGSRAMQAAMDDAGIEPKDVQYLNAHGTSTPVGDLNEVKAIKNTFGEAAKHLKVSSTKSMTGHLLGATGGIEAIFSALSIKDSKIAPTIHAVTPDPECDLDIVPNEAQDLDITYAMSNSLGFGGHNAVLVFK

[2] = Inhibition of Staphylococcus aureus FabH
Staphylococcus aureus [3] = assay: Antibacterial activity against Staphylococcus aureus MSSA assessed as bacterial growth inhibition; format: functional, organism-based
Staphylococcus aureus [4] = assay: Antibacterial activity against Staphylococcus aureus MRSA assessed as bacterial growth inhibition; format: functional, organism-based
Staphylococcus aureus [5] = assay: Antibacterial activity against Macrolide-resistant Staphylococcus aureus MRSA assessed as bacterial growth inhibition; format: functional, organism-based
Staphylococcus aureus [6] = assay: Antibacterial activity against Linezolid-resistant Staphylococcus aureus MRSA assessed as bacterial growth inhibition; format: functional, organism-based
Staphylococcus aureus [7] = assay: Antibacterial activity against Vancomycin-resistant Staphylococcus aureus VISA assessed as bacterial growth inhibition; format: functional, organism-based
Streptococcus pneumoniae = assay: Antibacterial activity against Streptococcus pneumoniae assessed as bacterial growth inhibition; format: functional, organism-based
[8] = Inhibition of Klebsiella pneumoniae LpxH
[9] = Inhibition of Escherichia coli LpxH
Klebsiella pneumoniae [10] = assay: Antibacterial activity against Klebsiella pneumoniae assessed as bacterial growth inhibition; format: functional
Klebsiella pneumoniae [11] = assay: Inhibition of Klebsiella pneumoniae LpxH relative to control; settings: concentration not given here
Escherichia coli [12] = assay: Antibacterial activity against Escherichia coli assessed as bacterial growth inhibition; format: functional
[13] = Inhibition of Escherichia coli LpxC
[14] = Binding affinity to Escherichia coli LpxC assessed as inhibition constant
[15] = Binding affinity to bacterial LpxD assessed as dissociation constant; parameters: species or system Bacteria
[16] = Binding affinity to bacterial LpxA assessed as dissociation constant; parameters: species or system Bacteria
Pseudomonas aeruginosa = assay: Antibacterial activity against Pseudomonas aeruginosa assessed as bacterial growth inhibition; format: functional
[17] = Inhibition of bacterial FabF/B; parameters: species or system Bacteria
[18] = Inhibition of bacterial FabH; parameters: species or system Bacteria
[19] = Inhibition of Escherichia coli BL21(DE3) LpxA
Escherichia coli [20] = assay: Antibacterial activity against Escherichia coli ATCC 25922 assessed as bacterial growth inhibition; format: functional, organism-based
Escherichia coli [21] = assay: Inhibition of Escherichia coli LpxH at 1 uM relative to control
[22] = Inhibition of mCherry-fused bacterial LpxH assessed as inhibition of UDP-DAG conversion by luminescence based assay; parameters: species or system Bacteria
Escherichia coli [23] = assay: Antibacterial activity against Escherichia coli Delta tolC assessed as bacterial growth inhibition; format: functional, organism-based
[24] = Inhibition of Escherichia coli Delta tolC LpxD
[25] = Inhibition of bacterial LpxA; parameters: species or system Bacteria
[26] = Inhibition of bacterial LpxD; parameters: species or system Bacteria
Escherichia coli [27] = assay: Antibacterial activity against Escherichia coli TolC minus assessed as bacterial growth inhibition; format: functional, organism-based
[28] = Binding affinity to Escherichia coli LpxC assessed as inhibition constant at pH 5.5 to 7.4
[29] = Binding affinity to Aquifex aeolicus LpxC assessed as inhibition constant at pH 5.5

C=C1C[C@@]23C=CC(=O)[C@@](C)(CCC(=O)Nc4c(O)ccc(C(=O)O)c4O)[C@@H]2C[C@@H]1CC3 [PLATENCIN]
IC50 [1]: 4.58 µM
IC50 [2]: 9.17 µM
IC50 (Staphylococcus aureus [3]): 0.06 µg/mL (≈ 0.141 µM)
IC50 (Staphylococcus aureus [4]): 0.06 µg/mL (≈ 0.141 µM)
IC50 (Staphylococcus aureus [5]): 0.06 µg/mL (≈ 0.141 µM)
IC50 (Staphylococcus aureus [6]): 0.06 µg/mL (≈ 0.141 µM)
IC50 (Staphylococcus aureus [7]): 0.06 µg/mL (≈ 0.141 µM)
IC50 (Streptococcus pneumoniae): 0.06 µg/mL (≈ 0.141 µM)

O=CN1CCc2cc(S(=O)(=O)N3CCN(c4cc(Cl)cc(C(F)(F)F)c4)CC3)ccc21
IC50 [8]: 0.026 µM
IC50 [9]: 0.046 µM
MIC (Klebsiella pneumoniae [10]): 1.6 µg/mL (≈ 3.38 µM)
inhibition (Klebsiella pneumoniae [11]): 64%

O=C(NO)C1COC(c2ccccc2)=N1 (stereo not given)
MIC (Escherichia coli [12]): 200 µg/mL (≈ 970 µM)
IC50 [13]: 8.5 µM
Ki [14]: 24 µM

CC[C@H](C)[C@H](NC(=O)[C@H](CC(=O)O)NC(=O)[C@H](Cc1c[nH]c2ccccc12)NC(=O)[C@H](CCCCN)NC(=O)[C@@H]1CCCN1C(=O)[C@H](CC(C)C)NC(=O)[C@H](CCSC)NC(=O)[C@H](Cc1ccc(O)cc1)NC(=O)[C@H](CC(C)C)NC(=O)[C@H](CC(N)=O)NC(=O)[C@@H](N)[C@@H](C)O)C(=O)N1CCC[C@H]1C(N)=O (H-TNLYMLPKWDIP-NH2)
Kd [15]: 6 µM
Kd [16]: 20 µM

NC(Cc1c[nH]c2ccc([N+](=O)[O-])cc12)C(=O)O (stereo not given)
Kd [16]: 13.6 µM

O=C(NO)[C@@H](Cc1ccc2ccccc2c1)NS(=O)(=O)c1ccc(Br)cc1
MIC (Escherichia coli [12]): 2 µg/mL (≈ 4.45 µM)
IC50 [13]: 0.4 µM
MIC (Pseudomonas aeruginosa): > 32 µg/mL

C/C=C/C/C=C/CCC(=O)[C@H]1O[C@H]1C(N)=O [CERULENIN]
IC50 [17]: 0.1 µg/mL (≈ 0.448 µM)
IC50 [18]: 150 µg/mL (≈ 672 µM)

CC[C@H](C)[C@H](NC(=O)[C@@H]1CCCN1C(=O)[C@H](CC(=O)O)NC(=O)[C@H](CC(C)C)NC(=O)[C@H](CCSC)NC(=O)[C@@H](N)Cc1c[nH]c2ccccc12)C(=O)N[C@@H](C)C(=O)NCC(=O)N[C@@H](CCCCN)C(=O)N[C@@H](Cc1c[nH]c2ccccc12)C(=O)N[C@@H](CO)C(=O)N[C@@H](CCCNC(=N)N)C(=O)O (H-WMLDPIAGKWSR-OH)
IC50 [19]: 0.05 µM

CC[C@H](C)[C@H](NC(=O)[C@@H]1CCCN1C(=O)[C@H](CCC(=O)O)NC(=O)[C@H](CC(C)C)NC(=O)[C@H](CCSC)NC(=O)[C@H](Cc1c[nH]c2ccccc12)NC(=O)CNC(=O)[C@H](CO)NC(=O)[C@@H](N)CO)C(=O)N[C@@H](C)C(=O)NCC(=O)N[C@@H](CCCCN)C(=O)N[C@@H](Cc1c[nH]c2ccccc12)C(=O)N[C@@H](CO)C(=O)O (H-SSGWMLEPIAGKWS-OH)
IC50 [19]: 12 µM

O=CN1CCc2cc(S(=O)(=O)N3CCN(c4cccc(Br)c4)CC3)ccc21
inhibition (Klebsiella pneumoniae [11]): 48%

CC[C@H](C)[C@H](NC(=O)[C@@H]1CCCN1C(=O)[C@H](CCC(=O)O)NC(=O)[C@H](CC(C)C)NC(=O)[C@H](CCSC)NC(=O)[C@H](Cc1c[nH]c2ccccc12)NC(=O)CNC(=O)[C@H](CO)NC(=O)[C@@H](N)CO)C(=O)N[C@@H](C)C(=O)NCC(=O)N[C@@H](CCCCN)C(=O)N[C@@H](Cc1c[nH]c2ccccc12)C(=O)O (H-SSGWMLEPIAGKW-OH)
IC50 [19]: 9 µM

O=CN1CCc2cc(S(=O)(=O)N3CCN(c4cccc(C(F)(F)F)c4)CC3)ccc21
MIC (Escherichia coli [20]): > 64 µg/mL
IC50 [8]: 0.36 µM
IC50 [9]: 0.14 µM
MIC (Klebsiella pneumoniae [10]): > 64 µg/mL
inhibition (Escherichia coli [21]): 45%
IC50 [22]: 1.2 µM

CC[C@H](C)[C@H](NC(=O)[C@@H]1CCCN1C(=O)[C@H](CCC(=O)O)NC(=O)[C@H](CC(C)C)NC(=O)[C@H](CCSC)NC(=O)[C@@H](N)Cc1c[nH]c2ccccc12)C(=O)O (H-WMLEPI-OH)
IC50 [19]: > 100 µM

CC1(C)CC(=O)C2=C(C1)Nc1nn(-c3ccccc3)c(O)c1C2c1ccccc1Cl (stereo not given)
MIC (Escherichia coli [23]): 3.13 µg/mL (≈ 7.45 µM)
IC50 [24]: 3.2 µM

Cc1ccnc(-c2cc(C(=O)N3CCOC[C@H]3Cc3ccccc3)[nH]n2)c1
Kd [16]: 110 µM
IC50 [25]: 4.8 µM
MIC (Escherichia coli [20]): > 128 µg/mL
IC50 (Escherichia coli [23]): 2 µg/mL (≈ 5.52 µM)

C/C(=C\C(=O)Nc1nnn[nH]1)c1cccc(C(F)(F)F)c1
Kd [16]: 2.1 µM

CSCC[C@H](NC(=O)[C@H](Cc1ccccc1)NC(=O)[C@H](CC(N)=O)NC(=O)[C@H](CC(N)=O)NC(=O)[C@H](CCC(=O)O)NC(=O)[C@@H](N)CO)C(=O)N[C@@H](CC(C)C)C(=O)N1CCC[C@H]1C(=O)N[C@@H](CC(C)C)C(=O)N[C@@H](CC(C)C)C(=O)N1CCC[C@H]1C(=O)N[C@@H](CC(C)C)C(N)=O (H-SENNFMLPLLPL-NH2)
IC50 [26]: 3.2 µM
IC50 (Escherichia coli [27]): 3.13 µM

CCCCCCCCCCCCC(=O)OC1C(CC(=O)NO)COC(CO)C1O (stereo not given)
Ki [28]: 0.65 µM
Ki [29]: 0.001 µM
